Results on four compounds are retold here after US20180055797A1, “NON-RACEMIC KETONE SALTS FOR RAPID-ONSET NUTRITIONAL KETOSIS AND METABOLIC THERAPY” (KetoneAid Inc., priority 2016, published 2018).

The conditions of assay [1]: cited from earlier work.
A short description of assay [2]: Ketone blood concentration after ingestion of 1,3-butanediol (FIG. 2, FIG. 3). It is filed as in vivo, person. The note with it: for increase in ketones over pre consumption ketone levels: one person (D), two people racemic. The text has this: FIG. 2 depicts an exemplary ketone blood concentration after ingestion of racemic 1,3-butanediol.
FIG. 3 depicts a ketone blood concentration after one person ingested (D) 1,3-butanediol, compared to the results of two people ingesting racemic 1,3-butanediol.
It should also be noted that only the D enantiomer is active in the body as a source of extracellular fuel that is then transported into the cells. Ketone blood level meters currently on the market only measure the blood level of the D enantiomer. Products containing racemic salts require two to three times the amount of sodium, calcium and potassium for an equal amount of D-β-hydroxybutyrate readings in the blood. A reason the potential levels of D-β-hydroxybutyrate in the blood is over double with chiral solutions is because the body has to waste energy and uses up some of the D-β-hydroxybutyrate to burn off the unnatural L-O-hydroxybutyrate.
FIG. 2 depicts exemplary results from ingestion of 33 ml racemic 1,3-butanediol. […] For example, as shown, the chiral form provided an increase in ketones of approximately 3.2 mmol/L whereas the racemic form provided approximately 0.9-1.0 mmol/L increases over pre consumption ketone levels.

As to `CC(O)CC(=O)[O-].[K+]` (racemic) [racemic potassium β-hydroxybutyrate, potassium β-hydroxybutyrate], the “ketones level a person would be limited to reaching” value in assay [1] (consuming at about 100% of potassium's RDA) is on record as “approximately 0.5 mmol/L”.
With `CC(O)CC(=O)[O-].[Na+]` (racemic) [racemic sodium β-hydroxybutyrate, sodium β-hydroxybutyrate], in assay [1] (consuming at about 100-200% of the RDA for sodium), the “ketones level a person would be limited to” value is recorded as “approximately 0.5 mmol/L”.
Regarding `CC(O)CCO` (stereo not drawn) [(D)-1,3-butanediol], the “D-β-hydroxybutyrate in the blood, (D) relative to racemic 1,3-butanediol” value in assay [2] (33 ml of each, FIG. 3) was “over double”. In addition, the “increase in ketones over pre consumption ketone levels” value in assay [2] (ingestion of 33 ml, FIG. 3) was “approximately 3.2 mmol/L”.
In the case of `CC(O)CCO` (racemic) [racemic 1,3-butanediol, 1,3-butanediol], the “increase in ketones over pre consumption ketone levels” value in assay [2] (ingestion of 33 ml, FIG. 3) lay in the range of 0.9 to 1.0 mmol/L. The “ketone blood concentration achieved” value in assay [2] (ingestion of 33 ml, over a 105-minute period, FIG. 2) was at most 1 mmol/L.
